Source: patent EP4745135A1 (Gluetacs Therapeutics (Shanghai) Co., Ltd., priority 2023, dated 2025)

What was measured:
[1] = test system: Human T cell acute lymphoblastic leukemia cell (CCRF-CEM); assay: Tumor cell proliferation inhibition (CellTiter-Meiluncell luminescent cell viability assay); conditions: 96 h; for inhibition at 0.01 µM: read-out: Inhibition Rate at 10 nM (%); for inhibition at 0.5 µM: read-out: Inhibition Rate at 500 nM (%)
IKZF1 = biological target: T1, IKZF1 (Homo sapiens, UniProt Q13422+Q96SW2); assay: Western blot, degradation of substrate protein in hPBMCs; assay type: cell-based
T1 construct: effects of the compounds of the present disclosure on the expression of target proteins in cells; endogenous in cells; host or cells: human PBMCs (Milecell Biotechnologies)
T1 sequence (Q13422 whole entry): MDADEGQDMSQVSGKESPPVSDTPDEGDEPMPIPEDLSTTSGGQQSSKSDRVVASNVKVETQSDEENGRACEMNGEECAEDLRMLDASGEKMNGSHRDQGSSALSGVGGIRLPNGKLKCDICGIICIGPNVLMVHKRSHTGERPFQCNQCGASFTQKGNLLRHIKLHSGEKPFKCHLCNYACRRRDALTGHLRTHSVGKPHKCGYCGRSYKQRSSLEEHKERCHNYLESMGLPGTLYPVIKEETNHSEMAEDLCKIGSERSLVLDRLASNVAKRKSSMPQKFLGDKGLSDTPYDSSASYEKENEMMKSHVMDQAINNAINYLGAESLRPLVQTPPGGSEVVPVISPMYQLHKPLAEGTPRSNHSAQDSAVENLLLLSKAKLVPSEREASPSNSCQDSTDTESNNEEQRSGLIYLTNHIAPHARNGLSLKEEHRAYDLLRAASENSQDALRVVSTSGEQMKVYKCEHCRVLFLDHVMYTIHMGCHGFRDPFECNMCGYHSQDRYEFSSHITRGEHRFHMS
T1 sequence (Q96SW2 whole entry): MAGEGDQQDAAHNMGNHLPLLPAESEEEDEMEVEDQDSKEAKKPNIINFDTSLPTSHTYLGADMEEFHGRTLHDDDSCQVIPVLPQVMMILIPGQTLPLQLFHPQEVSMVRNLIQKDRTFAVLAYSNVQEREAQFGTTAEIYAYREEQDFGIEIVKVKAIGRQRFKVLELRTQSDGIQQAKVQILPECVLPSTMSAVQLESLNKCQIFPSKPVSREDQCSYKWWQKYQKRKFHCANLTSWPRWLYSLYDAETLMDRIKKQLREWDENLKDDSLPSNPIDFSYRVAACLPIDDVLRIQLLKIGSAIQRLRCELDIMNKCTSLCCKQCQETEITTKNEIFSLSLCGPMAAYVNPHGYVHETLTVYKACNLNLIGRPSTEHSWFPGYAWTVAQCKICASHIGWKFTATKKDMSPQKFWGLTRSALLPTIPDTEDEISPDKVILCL
T1 sequence (Q16531 whole entry partner): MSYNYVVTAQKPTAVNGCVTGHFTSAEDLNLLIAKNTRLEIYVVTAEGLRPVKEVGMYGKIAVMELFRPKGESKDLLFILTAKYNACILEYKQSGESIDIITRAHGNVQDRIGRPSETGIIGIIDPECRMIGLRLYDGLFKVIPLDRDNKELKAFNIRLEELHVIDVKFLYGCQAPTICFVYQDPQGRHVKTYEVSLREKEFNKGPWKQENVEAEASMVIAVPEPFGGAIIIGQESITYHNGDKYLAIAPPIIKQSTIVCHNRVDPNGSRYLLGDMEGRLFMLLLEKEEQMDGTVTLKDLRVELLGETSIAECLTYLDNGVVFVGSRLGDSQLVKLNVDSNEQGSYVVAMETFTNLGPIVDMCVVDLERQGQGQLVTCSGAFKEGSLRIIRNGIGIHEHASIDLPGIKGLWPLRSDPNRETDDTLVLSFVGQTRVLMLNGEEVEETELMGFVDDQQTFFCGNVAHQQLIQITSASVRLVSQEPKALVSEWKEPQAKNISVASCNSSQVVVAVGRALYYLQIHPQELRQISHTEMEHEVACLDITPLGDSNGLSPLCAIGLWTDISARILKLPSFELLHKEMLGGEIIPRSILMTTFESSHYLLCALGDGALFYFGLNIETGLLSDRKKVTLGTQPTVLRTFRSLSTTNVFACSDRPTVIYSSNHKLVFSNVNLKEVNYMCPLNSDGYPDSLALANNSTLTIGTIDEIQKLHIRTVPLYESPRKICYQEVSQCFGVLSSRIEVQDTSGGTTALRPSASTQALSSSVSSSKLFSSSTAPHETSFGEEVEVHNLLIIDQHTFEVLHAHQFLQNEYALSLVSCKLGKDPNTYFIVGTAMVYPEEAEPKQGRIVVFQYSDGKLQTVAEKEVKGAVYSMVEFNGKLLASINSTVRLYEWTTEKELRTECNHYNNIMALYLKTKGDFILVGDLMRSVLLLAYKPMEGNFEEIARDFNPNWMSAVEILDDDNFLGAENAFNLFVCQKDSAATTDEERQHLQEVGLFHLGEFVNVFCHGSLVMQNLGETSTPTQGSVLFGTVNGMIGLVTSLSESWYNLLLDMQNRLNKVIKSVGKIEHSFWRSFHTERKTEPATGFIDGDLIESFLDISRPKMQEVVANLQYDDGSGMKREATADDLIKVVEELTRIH

WEE1 = biological target: T2, WEE1 (Homo sapiens, UniProt P30291+Q96SW2); assay: as above; assay type: cell-based
T2 construct: effects of the compounds of the present disclosure on the expression of target proteins in cells; endogenous in cells; host or cells: human PBMCs (Milecell Biotechnologies)
T2 sequence (P30291 whole entry): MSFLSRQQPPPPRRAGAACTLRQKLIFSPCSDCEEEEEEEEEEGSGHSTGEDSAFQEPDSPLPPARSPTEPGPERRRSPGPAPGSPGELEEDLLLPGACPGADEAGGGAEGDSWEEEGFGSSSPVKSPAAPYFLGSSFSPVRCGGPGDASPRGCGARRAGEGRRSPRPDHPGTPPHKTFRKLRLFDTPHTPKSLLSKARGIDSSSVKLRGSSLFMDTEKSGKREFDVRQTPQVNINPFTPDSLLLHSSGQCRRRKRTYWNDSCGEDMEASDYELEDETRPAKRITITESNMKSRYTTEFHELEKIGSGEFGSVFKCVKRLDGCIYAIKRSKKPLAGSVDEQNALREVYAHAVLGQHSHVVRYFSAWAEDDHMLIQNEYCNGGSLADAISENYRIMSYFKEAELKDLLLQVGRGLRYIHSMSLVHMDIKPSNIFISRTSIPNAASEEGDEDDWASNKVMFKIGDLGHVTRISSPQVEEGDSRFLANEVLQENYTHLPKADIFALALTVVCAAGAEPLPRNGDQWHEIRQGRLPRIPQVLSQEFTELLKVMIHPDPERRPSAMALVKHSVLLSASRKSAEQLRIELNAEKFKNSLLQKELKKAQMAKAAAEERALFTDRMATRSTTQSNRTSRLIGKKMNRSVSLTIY
T2 sequence (Q96SW2 whole entry): as the sequence (Q96SW2 whole entry) above
T2 sequence (Q16531 whole entry partner): as the sequence (Q16531 whole entry partner) above

IKZF2 = biological target: T3, IKZF2 (Homo sapiens, UniProt Q96SW2+Q9UKS7); assay: as above; assay type: cell-based
T3 construct: effects of the compounds of the present disclosure on the expression of target proteins in cells; endogenous in cells; host or cells: human PBMCs (Milecell Biotechnologies)
T3 sequence (Q9UKS7 whole entry): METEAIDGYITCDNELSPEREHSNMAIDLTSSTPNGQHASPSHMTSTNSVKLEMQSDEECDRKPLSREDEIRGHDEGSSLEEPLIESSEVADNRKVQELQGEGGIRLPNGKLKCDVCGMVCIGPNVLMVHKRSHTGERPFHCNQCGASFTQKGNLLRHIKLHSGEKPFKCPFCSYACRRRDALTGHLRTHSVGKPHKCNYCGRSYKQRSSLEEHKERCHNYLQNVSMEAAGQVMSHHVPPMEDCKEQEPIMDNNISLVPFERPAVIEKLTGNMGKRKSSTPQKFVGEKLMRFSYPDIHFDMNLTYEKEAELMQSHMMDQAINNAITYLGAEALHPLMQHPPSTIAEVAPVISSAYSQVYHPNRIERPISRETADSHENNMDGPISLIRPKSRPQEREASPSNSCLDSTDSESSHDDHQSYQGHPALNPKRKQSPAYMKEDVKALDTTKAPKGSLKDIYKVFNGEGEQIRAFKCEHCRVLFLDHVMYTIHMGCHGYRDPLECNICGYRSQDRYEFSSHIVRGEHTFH
T3 sequence (Q96SW2 whole entry): as the sequence (Q96SW2 whole entry) above
T3 sequence (Q16531 whole entry partner): as the sequence (Q16531 whole entry partner) above

CK1α = biological target: T4, CK1α (Homo sapiens, UniProt P48729+Q96SW2); assay: as above; assay type: cell-based
T4 construct: effects of the compounds of the present disclosure on the expression of target proteins in cells; endogenous in cells; host or cells: human PBMCs (Milecell Biotechnologies)
T4 sequence (P48729 whole entry): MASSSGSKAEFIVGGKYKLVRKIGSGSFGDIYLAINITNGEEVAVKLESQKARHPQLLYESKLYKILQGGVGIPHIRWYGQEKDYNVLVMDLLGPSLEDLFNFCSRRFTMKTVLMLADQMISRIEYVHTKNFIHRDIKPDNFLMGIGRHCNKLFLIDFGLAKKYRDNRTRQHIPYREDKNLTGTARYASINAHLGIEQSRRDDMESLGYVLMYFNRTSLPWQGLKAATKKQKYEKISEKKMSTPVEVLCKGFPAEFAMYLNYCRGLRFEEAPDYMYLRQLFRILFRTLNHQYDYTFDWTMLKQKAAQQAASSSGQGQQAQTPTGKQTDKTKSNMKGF
T4 sequence (Q96SW2 whole entry): as the sequence (Q96SW2 whole entry) above
T4 sequence (Q16531 whole entry partner): as the sequence (Q16531 whole entry partner) above

IKZF3 = biological target: T5, IKZF3 (Homo sapiens, UniProt Q96SW2+Q9UKT9); assay: as above; assay type: cell-based
T5 construct: effects of the compounds of the present disclosure on the expression of target proteins in cells; endogenous in cells; host or cells: human PBMCs (Milecell Biotechnologies)
T5 sequence (Q9UKT9 whole entry): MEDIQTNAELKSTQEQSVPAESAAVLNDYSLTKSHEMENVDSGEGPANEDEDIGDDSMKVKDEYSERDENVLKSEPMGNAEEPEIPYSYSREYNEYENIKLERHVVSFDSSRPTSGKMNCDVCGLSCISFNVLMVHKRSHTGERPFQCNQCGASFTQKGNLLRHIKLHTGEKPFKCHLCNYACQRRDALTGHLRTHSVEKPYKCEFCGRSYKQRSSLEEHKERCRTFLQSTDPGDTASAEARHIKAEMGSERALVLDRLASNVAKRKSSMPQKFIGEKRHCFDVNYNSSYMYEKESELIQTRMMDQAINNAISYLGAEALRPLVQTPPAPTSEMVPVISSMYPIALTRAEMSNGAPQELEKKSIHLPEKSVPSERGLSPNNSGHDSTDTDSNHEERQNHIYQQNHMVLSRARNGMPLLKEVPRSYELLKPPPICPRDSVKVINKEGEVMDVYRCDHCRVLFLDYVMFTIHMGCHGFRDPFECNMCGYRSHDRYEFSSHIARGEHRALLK
T5 sequence (Q96SW2 whole entry): as the sequence (Q96SW2 whole entry) above
T5 sequence (Q16531 whole entry partner): as the sequence (Q16531 whole entry partner) above

[2] = test system: Human myeloid monocytic leukemia cell (MV-4-11); assay: Tumor cell proliferation inhibition (CellTiter-Meiluncell luminescent cell viability assay); conditions: MV4-11, 96 h; for inhibition at 0.01 µM: read-out: Inhibition Rate at 10 nM (%); for inhibition at 0.5 µM: read-out: Inhibition Rate at 500 nM (%)
GSPT1 = assay: Western blot, degradation of substrate protein in hPBMCs; assay type: cell-based, Human
[3] = test system: Human acute T lymphocytic leukemia cell (Molt4); assay: Tumor cell proliferation inhibition (CellTiter-Meiluncell luminescent cell viability assay); conditions: MOLT-4, 96 h; for inhibition at 0.01 µM: read-out: Inhibition Rate at 10 nM (%); for inhibition at 0.5 µM: read-out: Inhibition Rate at 500 nM (%)
[4] = test system: Human multiple myeloma cell (MM.1S); assay: as above; conditions: for inhibition at 0.01 µM / inhibition at 0.5 µM: Homo sapiens, MM1.S, 96 h; for inhibition at 0.01 µM: read-out: Inhibition Rate at 10 nM (%); for Inhibition Rate at 500 nM (%): MM.1S, 96 hours; for inhibition at 0.5 µM: read-out: Inhibition Rate at 500 nM (%)
[5] = test system: Human acute myeloid leukemia cell line: Kasumi-1; assay: as above; conditions: Kasumi 1, 96 h; for inhibition at 0.01 µM: read-out: Inhibition Rate at 10 nM (%); for inhibition at 0.5 µM: read-out: Inhibition Rate at 500 nM (%)
Procedure: The tumor cells used herein were cultured in a cell culture medium listed in table 2 at 37°C in an incubator with 5% CO2. Prior to experimentation, all cell lines used were correctly identified by STR profiling, and tested negative for mycoplasma contamination using a mycoplasma detection kit through routine screenings.
The IC50 values of the compounds of the present disclosure (including the compounds in Table 1 and Examples) were determined using the CellTiter-Meiluncell Luminescent Cell Viability Assay Kit from Dalian Meilun Biotech Co., Ltd. The detailed procedure is as follows: Tumor cells were seeded in 96-well cell culture plates at the densities specified in Table 3. On the following day, the test compounds of the present disclosure were subjected to serial dilution. The dilution can be performed according to one of the following two methods: • (1) The first dilution method: The test compounds of the present disclosure (including the compounds in Table 1 and Examples) were subjected to 5-fold serial dilutions starting from a highest concentration of 2000 µM, resulting in a total of 9 concentrations from high to low (2000, 400, 80, 16, 3.2, 0.64, 0.128, 0.0256, 0.00512 µM). Subsequently, 0.5 µL of the test compound dilution was transferred into the 96-well plate containing the cells, with each well containing 100 µL of cell culture medium. […] Into the 96-well plate, the diluted test compounds and corresponding detection reagents were added, resulting in final test compound concentrations of 500 nM and 10 nM, respectively. The experimental procedure is described below using the diluted 2 µM test compound as an example.
0.5 µL of the aforementioned diluted compound of the present disclosure (including the compounds in Table 1 and Examples) was added to the seeded cells in 100 µL of medium, yielding a final test compound concentration of 10 nM. After the cells were treated with the compounds of the present disclosure for a specified period, the cell viability assay reagent was added to the culture medium according to the kit's instructions to determine cell viability. […] All controls were treated using the same procedure as the compounds of the present disclosure. The growth inhibition curves for the compounds of the present disclosure were plotted using Prism GraphPad software, and the IC50 values were calculated therefrom.

[6] = test system: Human T lymphocytic leukemia cell line: Jurkat; assay: as above; conditions: 96 h; for inhibition at 0.01 µM: read-out: Inhibition Rate at 10 nM (%); for inhibition at 0.5 µM: read-out: Inhibition Rate at 500 nM (%)
[7] = biological target: T6, human Cereblon WT GST-tagged protein (Homo sapiens, UniProt Q96SW2); assay: CRBN-binding affinity, HTRF (CEREBLON BINDING kit); conditions: for inhibition at 0.5 µM: read-out: Inhibition Rate at 0.5 µM (%); for inhibition at 2 µM: read-out: Inhibition Rate at 2 µM (%)
T6 construct: purchased CISBIO 64BDCRBNPEH
T6 sequence (Q96SW2 whole entry): as the sequence (Q96SW2 whole entry) above

[8] = test system: Human multiple myeloma peripheral blood B lymphocyte cell (RPMI-8226); assay: Tumor cell proliferation inhibition (CellTiter-Meiluncell luminescent cell viability assay); conditions: RPMI-8226, 96 h; for inhibition at 0.01 µM: read-out: Inhibition Rate at 10 nM (%); for inhibition at 0.5 µM: read-out: Inhibition Rate at 500 nM (%)
[9] = Western blot, 24 hours of compound treatment, compounds tested at 50 nM and 500 nM (concentration for the table not stated)
[10] = 24 hours treatment, compounds at 50 nM and 500 nM (concentration behind the class not stated)

| inhibition at 0.5 µM [7] [%] | inhibition at 2 µM [7] [%] | Compound | inhibition at 0.01 µM [1] [%] | inhibition at 0.5 µM [1] [%] | inhibition at 0.01 µM [2] [%] | inhibition at 0.5 µM [2] [%] | inhibition at 0.01 µM [3] [%] | inhibition at 0.5 µM [3] [%] | inhibition at 0.01 µM [4] [%] | inhibition at 0.01 µM [5] [%] | inhibition at 0.5 µM [5] [%] | inhibition at 0.01 µM [6] [%] | inhibition at 0.5 µM [6] [%] | IKZF 1 substrate protein remaining % (IKZF1; [10]) | Wee1 substrate protein remaining % (WEE1; [10]) | IKZF2 substrate protein remaining % (IKZF2; [10]) | CK1α substrate protein remaining % (CK1α; [10]) | IKZF3 substrate protein remaining % (IKZF3; [10]) | GSPT1 substrate protein remaining % (GSPT1; [10]) | inhibition at 0.5 µM [4] [%] | also measured |
| --- | --- | --- | --- | --- | --- | --- | --- | --- | --- | --- | --- | --- | --- | --- | --- | --- | --- | --- | --- | --- | --- |
| 60 to 80 | 80 to 100 | O=C1CCC(N2Cc3cc(CN4CCC(c5ccsc5)CC4)ccc3C2=S)C(=O)N1 (stereo not shown) [GT-08324, 3-(5-((4-(thiophen-3-yl)piperidin-1-yl)methyl)-1-thioxoisoindolin-2-yl)piperidine-2,6-dione] | 5 to 10 | 80 to 100 | 30 to 40 | 80 to 100 | 10 to 20 | 80 to 100 | 20 to 30 | 0 to 5 | 60 to 70 | -5 to 0 | 40 to 50 | A (0% ≤ substrate protein remaining % ≤ 80%) | A (0% ≤ substrate protein remaining % ≤ 80%) | A (0% ≤ substrate protein remaining % ≤ 80%) | A (0% ≤ substrate protein remaining % ≤ 80%) | B (80%< substrate protein remaining %≤ 100%) | A (0% ≤ substrate protein remaining % ≤ 80%) | 80 to 100 |  |
| 40 to 53 | 80 to 100 | O=C1CCC(N2Cc3cc(CN4CCC(c5cccs5)CC4)ccc3C2=S)C(=O)N1 (stereo not shown) [GT-08329, 3-(5-((4-(thiophen-2-yl)piperidin-1-yl)methyl)-1-thioxoisoindolin-2-yl)piperidine-2,6-dione] | 10 to 20 | 80 to 100 | -5 to 0 | 80 to 100 | 10 to 20 | 80 to 100 | 10 to 20 | 5 to 10 | 80 to 100 | 10 to 20 | 70 to 80 | B (80%< substrate protein remaining %≤ 100%) | A (0% ≤ substrate protein remaining % ≤ 80%) | B (80%< substrate protein remaining %≤ 100%) | A (0% ≤ substrate protein remaining % ≤ 80%) | B (80%< substrate protein remaining %≤ 100%) | A (0% ≤ substrate protein remaining % ≤ 80%) |  | inhibition at 0.01 µM [8]: 10 to 20%; inhibition at 0.5 µM [8]: 70 to 80%; Inhibition Rate at 500 nM (%) [4]: la10 |
| 40 to 53 | 80 to 100 | O=C1CCC(N2Cc3cc(CN4CCC(c5cccc(F)c5F)CC4)ccc3C2=S)C(=O)N1 (stereo not shown) [GT-08331, 3-(5-((4-(2,3-difluorophenyl)piperidin-1-yl)methyl)-1-thioxoisoindolin-2-yl)piperidine-2,6-dione] | 5 to 10 | 80 to 100 |  |  | 10 to 20 | 80 to 100 | 10 to 20 | 5 to 10 | 70 to 80 | 5 to 10 | 50 to 60 | A (0% ≤ substrate protein remaining % ≤ 80%) | A (0% ≤ substrate protein remaining % ≤ 80%) | A (0% ≤ substrate protein remaining % ≤ 80%) | A (0% ≤ substrate protein remaining % ≤ 80%) | B (80%< substrate protein remaining %≤ 100%) | A (0% ≤ substrate protein remaining % ≤ 80%) | 80 to 100 | inhibition at 0.01 µM [8]: 10 to 20%; inhibition at 0.5 µM [8]: 40 to 50% |

The remaining lines, values behind:

| Compound | inhibition at 0.5 µM [7] [%] | inhibition at 2 µM [7] [%] | inhibition at 0.01 µM [1] [%] | inhibition at 0.5 µM [1] [%] | inhibition at 0.01 µM [2] [%] | inhibition at 0.5 µM [2] [%] | inhibition at 0.01 µM [3] [%] | inhibition at 0.5 µM [3] [%] | inhibition at 0.01 µM [4] [%] | inhibition at 0.01 µM [5] [%] | inhibition at 0.5 µM [5] [%] | inhibition at 0.01 µM [6] [%] | inhibition at 0.5 µM [6] [%] | IKZF 1 substrate protein remaining % (IKZF1; [10]) | Wee1 substrate protein remaining % (WEE1; [10]) | IKZF2 substrate protein remaining % (IKZF2; [10]) | CK1α substrate protein remaining % (CK1α; [10]) | IKZF3 substrate protein remaining % (IKZF3; [10]) | GSPT1 substrate protein remaining % (GSPT1; [10]) | inhibition at 0.5 µM [4] [%] | also measured |
| --- | --- | --- | --- | --- | --- | --- | --- | --- | --- | --- | --- | --- | --- | --- | --- | --- | --- | --- | --- | --- | --- |
| O=C1CCC(N2Cc3cc(CN4CCN(c5ccccc5)CC4)ccc3C2=S)C(=O)N1 (stereo not shown) [GT-08205, 3-(5-((4-phenylpiperazin-1-yl)methyl)-1-thioxoisoindolin-2-yl)piperidine-2,6-dione] | 60 to 80 | 80 to 100 | 10 to 20 | 60 to 70 | 5 to 10 | 80 to 100 | 0 to 5 | 60 to 70 | 10 to 20 | 10 to 20 | 40 to 50 | 5 to 10 | 30 to 40 |  |  |  |  |  |  |  | IKZF 1 substrate protein remaining % (IKZF1; [9]): B (80%< substrate protein remaining %≤ 100%); Wee1 substrate protein remaining % (WEE1; [9]): A (0% ≤ substrate protein remaining % ≤ 80%); IKZF2 substrate protein remaining % (IKZF2; [9]): A (0% ≤ substrate protein remaining % ≤ 80%); CK1α substrate protein remaining % (CK1α; [9]): B (80%< substrate protein remaining %≤ 100%); IKZF3 substrate protein remaining % (IKZF3; [9]): A (0% ≤ substrate protein remaining % ≤ 80%); GSPT1 substrate protein remaining % (GSPT1; [9]): A (0% ≤ substrate protein remaining % ≤ 80%); Inhibition Rate at 500 nM (%) [4]: la8 |
| Cc1cc(C2CCN(Cc3ccc4c(c3)CN(C3CCC(=O)NC3=O)C4=S)CC2)cs1 (stereo not shown) [GT-08325, 3-(5-((4-(5-methylthiophen-3-yl)piperidin-1-yl)methyl)-1-thioxoisoindolin-2-yl)piperidine-2,6-dione] | 60 to 80 | 80 to 100 | 10 to 20 | 80 to 100 | 60 to 80 | 100 to 110 | 10 to 20 | 80 to 100 | 30 to 40 | 0 to 5 | 80 to 100 | -5 to 0 | 70 to 80 | B (80%< substrate protein remaining %≤ 100%) | A (0% ≤ substrate protein remaining % ≤ 80%) | B (80%< substrate protein remaining %≤ 100%) | A (0% ≤ substrate protein remaining % ≤ 80%) | B (80%< substrate protein remaining %≤ 100%) | A (0% ≤ substrate protein remaining % ≤ 80%) | 80 to 100 | inhibition at 0.01 µM [8]: 20 to 30%; inhibition at 0.5 µM [8]: 60 to 70% |
| O=C1CCC(N2Cc3cc(CN4CC=C(c5ccoc5)CC4)ccc3C2=S)C(=O)N1 (stereo not shown) [GT-08328, 3-(5-((4-(furan-3-yl)-3,6-dihydropyridin-1(2H)-yl)methyl)-1-thioxoisoindolin-2-yl)piperidine-2,6-dione] | 60 to 80 | 80 to 100 | 10 to 20 | 80 to 100 | 40 to 60 | 80 to 100 | 10 to 20 | 80 to 100 | 50 to 60 | 5 to 10 | 60 to 70 | 0 to 5 | 40 to 50 | B (80%< substrate protein remaining %≤ 100%) | A (0% ≤ substrate protein remaining % ≤ 80%) | B (80%< substrate protein remaining %≤ 100%) | A (0% ≤ substrate protein remaining % ≤ 80%) | B (80%< substrate protein remaining %≤ 100%) | A (0% ≤ substrate protein remaining % ≤ 80%) | 80 to 100 |  |
